System: circBRIP1 in HCT116 cells
Experiment: DHX9 circBRIP1 cellular target engagement SYBR Green assay (qPCR)
Assay type: cell-based
Details: Homo sapiens, HCT-116, circBRIP1, HCT116 cells; SyBr assay (marked ^+); read-out: DHX9 Cellular Target Engagement EC50

CC(=O)N1CCN(c2ccc(-n3cc(C(=O)Nc4cc(Br)cc(NS(C)(=O)=O)c4)cn3)nc2)CC1 [Example 86, 1-(5-(4-acetylpiperazin-1-yl)pyridin-2-yl)-N-(3-bromo-5-(methylsulfonamido)phenyl)-1H-pyrazole-4-carboxamide]
EC50: 0.585 µM

CC(=O)N1CCN(c2cnc(-n3cc(C(=O)Nc4cc(Br)cc(NS(C)(=O)=O)c4)cn3)c(C)c2)CC1 [Example 87]
EC50: 2.46 µM

CN1CCN(c2ccc(-n3cc(C(=O)Nc4cc(Br)cc(NS(C)(=O)=O)c4)cn3)nc2)CC1=O [Example 88]
EC50: > 10 µM

CN(C)C(=O)N1CCN(c2ccc(-n3cc(C(=O)Nc4cc(Cl)cc(NS(C)(=O)=O)c4)cn3)nc2)CC1 [Example 89]
EC50: 0.667 µM

CS(=O)(=O)Nc1cc(Cl)cc(NC(=O)c2cnn(-c3ccc(N4CCCC4=O)cn3)c2)c1 [Example 90]
EC50: 1.06 µM

CS(=O)(=O)Nc1cc(Cl)cc(NC(=O)c2cnn(-c3cc(N4CCOCC4)ccn3)c2)c1 [Example 91]
EC50: 0.382 µM

CS(=O)(=O)Nc1cc(Br)cc(NC(=O)c2ccc3c(c2)[nH]c(=O)n3Cc2ccccc2)c1 [Example 99, 1-benzyl-N-(3-bromo-5-(methylsulfonamido)phenyl)-2-oxo-2,3-dihydro-1H-benzo[d]imidazole-5-carboxamide]
EC50: > 10 µM

CS(=O)(=O)Nc1cc(Cl)cc(NC(=O)c2cccc(-c3ccnc(Cl)c3)c2)c1 [Example 102, N-(3-chloro-5-(methylsulfonamido)phenyl)-3-(2-chloropyridin-4-yl)benzamide]
EC50: > 30 µM

CS(=O)(=O)Nc1cc(Br)cc(NC(=O)c2cnn(-c3ccccc3C(O)C(F)(F)F)c2)c1 (stereo not drawn) [Example 103, N-(3-bromo-5-(methylsulfonamido)phenyl)-1-(2-(2,2,2-trifluoro-1-hydroxyethyl)phenyl)-1H-pyrazole-4-carboxamide]
EC50: 5.31 µM

CS(=O)(=O)Nc1cc(Br)cc(NC(=O)c2cc(Cc3ccc[nH]3)cs2)c1 [Example 104, 4-((1H-pyrrol-2-yl)methyl)-N-(3-bromo-5-(methylsulfonamido)phenyl)-thiophene-2-carboxamide]
EC50: 5.49 µM

CS(=O)(=O)Nc1cc(F)cc(NC(=O)c2cc(-c3cccnc3)cs2)c1 [Example 105, N-(3-fluoro-5-(methylsulfonamido)phenyl)-4-(pyridin-3-yl)thiophene-2-carboxamide]
EC50: 8.33 µM

CS(=O)(=O)Nc1cc(Cl)cc(NC(=O)c2cc(-c3ccccc3O)cs2)c1 [Example 106]
EC50: 0.414 µM

CS(=O)(=O)Nc1cc(Cl)cc(NC(=O)c2cc(-c3cccc(F)c3)cs2)c1 [Example 108]
EC50: 6.65 µM

Cn1cc(C(=O)Nc2cc(Cl)cc(NS(C)(=O)=O)c2)cc1-c1ccccc1 [Example 109]
EC50: 0.437 µM

CCS(=O)(=O)Nc1cc(Cl)cc(NC(=O)c2cc(-c3cccnc3)cs2)c1 [Example 110]
EC50: 2.71 µM

CS(=O)(=O)Nc1cc(F)cc(NC(=O)c2cc(-c3ccccn3)cs2)c1 [Example 112, N-(3-fluoro-5-(methylsulfonamido)phenyl)-4-(pyridin-2-yl)thiophene-2-carboxamide]
EC50: 0.627 µM

CCS(=O)(=O)Nc1cc(F)cc(NC(=O)c2cc(-c3ccccn3)cs2)c1 [Example 113]
EC50: 7.44 µM

CS(=O)(=O)Nc1cc(F)cc(NC(=O)c2cc(-c3ccccc3O)cs2)c1 [Example 114]
EC50: 1.48 µM

CS(=O)(=O)Nc1cc(Cl)cc(NC(=O)c2cc(-c3cccnc3)cs2)c1 [Example 116, N-(3-chloro-5-(methylsulfonamido)phenyl)-4-(pyridin-3-yl)thiophene-2-carboxamide]
EC50: 0.734 µM

CS(=O)(=O)Nc1cc(Cl)cc(NC(=O)c2cccc(-n3cccn3)c2)c1 [Example 117]
EC50: 3.87 µM

CS(=O)(=O)Nc1cc(Br)cc(NC(=O)c2cccc(-n3cccn3)c2)c1 [Example 118]
EC50: 2.93 µM

CS(=N)(=O)Nc1cc(Br)cc(NC(=O)c2cc(-c3ccccn3)cs2)c1 (stereo not drawn) [Example 121, N-(3-bromo-5-(methylsulfonoamidimidamido)phenyl)-4-(pyridin-2-yl)thiophene-2-carboxamide]
EC50: 5.43 µM

Cc1cccnc1-c1csc(C(=O)Nc2cc(Br)cc(NS(C)(=N)=O)c2)c1 (stereo not drawn) [Example 122]
EC50: 1.29 µM

Cc1sc(C(=O)Nc2cc(Br)cc(NS(C)(=N)=O)c2)cc1-c1ccccn1 (stereo not drawn) [Example 123]
EC50: 6.59 µM

CS(=O)(=O)Nc1cc(Cl)cc(NC(=O)c2csc(-c3ccccc3)c2)c1 [Example 124, N-(3-chloro-5-(methylsulfonamido)phenyl)-5-phenylthiophene-3-carboxamide]
EC50: 5.14 µM

CS(=O)(=O)Nc1cc(Cl)cc(NC(=O)c2coc(-c3ccccc3)c2)c1 [Example 125]
EC50: 16.1 µM

CS(=O)(=O)Nc1cc(Cl)cc(NC(=O)c2cnn(CCCO)c2)c1 [Example 126, N-(3-chloro-5-(methylsulfonamido)phenyl)-1-(3-hydroxypropyl)-1H-pyrazole-4-carboxamide]
EC50: > 10 µM

CS(=O)(=O)Nc1cc(Cl)cc(NC(=O)c2cnn(CCO)c2)c1 [Example 127]
EC50: > 10 µM

CS(=O)(=O)Nc1cc(Cl)cc(NC(=O)c2cnn(C3CC4(COC4)C3)c2)c1 [Example 128]
EC50: > 10 µM

CS(=O)(=O)Nc1cc(Cl)cc(NC(=O)c2cnn(C3CCOCC3)c2)c1 [Example 131, N-(3-chloro-5-(methylsulfonamido)phenyl)-1-(tetrahydro-2H-pyran-4-yl)-1H-pyrazole-4-carboxamide]
EC50: > 10 µM

CC(C)(C)OC(=O)N1CCC(n2cc(C(=O)Nc3cc(Cl)cc(NS(C)(=O)=O)c3)cn2)CC1 [Example 136]
EC50: 6.41 µM

Cn1nc(C(=O)Nc2cc(Cl)cc(NS(C)(=O)=O)c2)cc1-c1ccccc1OCc1ccccc1 [Example 138, 5-(2-(benzyloxy)phenyl)-N-(3-chloro-5-(methylsulfonamido)phenyl)-1-methyl-1H-pyrazole-3-carboxamide]
EC50: > 10 µM

Cn1nc(C(=O)Nc2cc(Cl)cc(NS(C)(=O)=O)c2)cc1-c1ccccn1 [Example 140]
EC50: > 10 µM

Cn1nc(-c2ccccn2)cc1C(=O)Nc1cc(Cl)cc(NS(C)(=O)=O)c1 [Example 141]
EC50: > 10 µM

CC(c1ccccc1)n1cc(C(=O)Nc2cc(Cl)cc(NS(C)(=O)=O)c2)cn1 (stereo not drawn) [Example 142, N-(3-chloro-5-(methylsulfonamido)phenyl)-1-(1-phenylethyl)-1H-pyrazole-4-carboxamide]
EC50: > 10 µM

CC(C)(C)OC(=O)N1CC2(CC(n3cc(C(=O)Nc4cc(Cl)cc(NS(C)(=O)=O)c4)cn3)C2)C1 [Example 144, tert-butyl 6-(4-((3-chloro-5-(methylsulfonamido)phenyl)carbamoyl)-1H-pyrazol-1-yl)-2-azaspiro[3.3]heptane-2-carboxylate]
EC50: 5.85 µM

CS(=O)(=O)Nc1cc(Cl)cc(NC(=O)c2cnn(C3CCNCC3)c2)c1 [Example 145, N-(3-chloro-5-(methylsulfonamido)phenyl)-1-(piperidin-4-yl)-1H-pyrazole-4-carboxamide]
EC50: > 10 µM

CS(=O)(=O)Nc1cc(Cl)cc(NC(=O)c2cnn(C3CC4(CNC4)C3)c2)c1 [Example 146]
EC50: > 10 µM

CS(=O)(=O)Nc1cc(Cl)cc(NC(=O)c2cnn(-c3cc(N4CCNCC4)ccn3)c2)c1 [Example 147]
EC50: 0.834 µM
